Columns and labels:
[1] = molecular target: T1, Serine/threonine-protein kinase Sgk3 (Homo sapiens) (UniProt Q96BR1); test: Inhibition of SGK3 K1 labeling site in human Huh-7 cells at 1 uM by KiNativ Profiling analysis relative to control; type: cell-based
T1 sequence (whole entry): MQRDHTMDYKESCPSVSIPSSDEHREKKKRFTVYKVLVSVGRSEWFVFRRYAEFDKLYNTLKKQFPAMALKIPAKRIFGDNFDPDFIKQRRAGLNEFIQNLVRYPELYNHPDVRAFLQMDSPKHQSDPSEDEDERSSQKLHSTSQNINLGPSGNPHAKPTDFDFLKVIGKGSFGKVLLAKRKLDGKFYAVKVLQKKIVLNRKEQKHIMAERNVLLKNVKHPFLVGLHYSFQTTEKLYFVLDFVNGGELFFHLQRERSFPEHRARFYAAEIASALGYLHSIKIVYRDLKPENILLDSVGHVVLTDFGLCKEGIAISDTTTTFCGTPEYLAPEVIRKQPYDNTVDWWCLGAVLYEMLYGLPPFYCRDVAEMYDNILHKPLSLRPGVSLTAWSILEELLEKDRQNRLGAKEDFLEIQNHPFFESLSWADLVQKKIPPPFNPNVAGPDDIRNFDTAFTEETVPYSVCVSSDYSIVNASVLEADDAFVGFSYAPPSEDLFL

[2] = molecular target: Tyrosine-protein kinase Fer (Homo sapiens, UniProt P16591); test: Inhibition of FER K1 labeling site in human Huh-7 cells at 10 uM by KiNativ Profiling analysis relative to control; type: cell-based
Tyrosine-protein kinase Fer, sequence (P16591 whole entry, looked up, the tested form may be a part): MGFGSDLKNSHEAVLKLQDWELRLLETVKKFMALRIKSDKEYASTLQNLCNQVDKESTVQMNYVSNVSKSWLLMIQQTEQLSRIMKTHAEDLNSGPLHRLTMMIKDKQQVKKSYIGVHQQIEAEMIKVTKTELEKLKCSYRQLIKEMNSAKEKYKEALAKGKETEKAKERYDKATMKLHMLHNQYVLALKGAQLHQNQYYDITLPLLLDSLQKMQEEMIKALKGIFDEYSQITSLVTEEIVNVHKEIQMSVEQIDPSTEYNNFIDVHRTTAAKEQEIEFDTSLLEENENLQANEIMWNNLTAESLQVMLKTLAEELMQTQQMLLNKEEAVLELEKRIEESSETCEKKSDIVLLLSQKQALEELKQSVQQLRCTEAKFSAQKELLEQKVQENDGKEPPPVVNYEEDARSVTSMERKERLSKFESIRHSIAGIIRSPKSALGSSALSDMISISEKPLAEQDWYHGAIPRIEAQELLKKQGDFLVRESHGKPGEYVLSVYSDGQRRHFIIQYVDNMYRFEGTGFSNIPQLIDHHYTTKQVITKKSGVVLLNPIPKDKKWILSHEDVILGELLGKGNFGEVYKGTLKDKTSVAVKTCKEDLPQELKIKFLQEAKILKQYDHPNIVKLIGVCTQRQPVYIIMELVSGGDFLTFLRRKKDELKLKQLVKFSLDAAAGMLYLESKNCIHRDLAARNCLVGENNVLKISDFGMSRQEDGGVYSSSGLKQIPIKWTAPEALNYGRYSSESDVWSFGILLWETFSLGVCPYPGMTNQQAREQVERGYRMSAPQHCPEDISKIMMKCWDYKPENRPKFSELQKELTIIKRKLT

[3] = test system: eIF-2-alpha kinase GCN2 (Homo sapiens), Q9P2K8 [S808G]; test: Inhibition of GCN2 kinase domain 2 S808G mutant (unknown origin) at 1 uM by Ambit Kinomescan binding assay relative to control
eIF-2-alpha kinase GCN2 (Homo sapiens), Q9P2K8 [S808G], sequence (Q9P2K8 whole entry S808G, the tested form may be a part): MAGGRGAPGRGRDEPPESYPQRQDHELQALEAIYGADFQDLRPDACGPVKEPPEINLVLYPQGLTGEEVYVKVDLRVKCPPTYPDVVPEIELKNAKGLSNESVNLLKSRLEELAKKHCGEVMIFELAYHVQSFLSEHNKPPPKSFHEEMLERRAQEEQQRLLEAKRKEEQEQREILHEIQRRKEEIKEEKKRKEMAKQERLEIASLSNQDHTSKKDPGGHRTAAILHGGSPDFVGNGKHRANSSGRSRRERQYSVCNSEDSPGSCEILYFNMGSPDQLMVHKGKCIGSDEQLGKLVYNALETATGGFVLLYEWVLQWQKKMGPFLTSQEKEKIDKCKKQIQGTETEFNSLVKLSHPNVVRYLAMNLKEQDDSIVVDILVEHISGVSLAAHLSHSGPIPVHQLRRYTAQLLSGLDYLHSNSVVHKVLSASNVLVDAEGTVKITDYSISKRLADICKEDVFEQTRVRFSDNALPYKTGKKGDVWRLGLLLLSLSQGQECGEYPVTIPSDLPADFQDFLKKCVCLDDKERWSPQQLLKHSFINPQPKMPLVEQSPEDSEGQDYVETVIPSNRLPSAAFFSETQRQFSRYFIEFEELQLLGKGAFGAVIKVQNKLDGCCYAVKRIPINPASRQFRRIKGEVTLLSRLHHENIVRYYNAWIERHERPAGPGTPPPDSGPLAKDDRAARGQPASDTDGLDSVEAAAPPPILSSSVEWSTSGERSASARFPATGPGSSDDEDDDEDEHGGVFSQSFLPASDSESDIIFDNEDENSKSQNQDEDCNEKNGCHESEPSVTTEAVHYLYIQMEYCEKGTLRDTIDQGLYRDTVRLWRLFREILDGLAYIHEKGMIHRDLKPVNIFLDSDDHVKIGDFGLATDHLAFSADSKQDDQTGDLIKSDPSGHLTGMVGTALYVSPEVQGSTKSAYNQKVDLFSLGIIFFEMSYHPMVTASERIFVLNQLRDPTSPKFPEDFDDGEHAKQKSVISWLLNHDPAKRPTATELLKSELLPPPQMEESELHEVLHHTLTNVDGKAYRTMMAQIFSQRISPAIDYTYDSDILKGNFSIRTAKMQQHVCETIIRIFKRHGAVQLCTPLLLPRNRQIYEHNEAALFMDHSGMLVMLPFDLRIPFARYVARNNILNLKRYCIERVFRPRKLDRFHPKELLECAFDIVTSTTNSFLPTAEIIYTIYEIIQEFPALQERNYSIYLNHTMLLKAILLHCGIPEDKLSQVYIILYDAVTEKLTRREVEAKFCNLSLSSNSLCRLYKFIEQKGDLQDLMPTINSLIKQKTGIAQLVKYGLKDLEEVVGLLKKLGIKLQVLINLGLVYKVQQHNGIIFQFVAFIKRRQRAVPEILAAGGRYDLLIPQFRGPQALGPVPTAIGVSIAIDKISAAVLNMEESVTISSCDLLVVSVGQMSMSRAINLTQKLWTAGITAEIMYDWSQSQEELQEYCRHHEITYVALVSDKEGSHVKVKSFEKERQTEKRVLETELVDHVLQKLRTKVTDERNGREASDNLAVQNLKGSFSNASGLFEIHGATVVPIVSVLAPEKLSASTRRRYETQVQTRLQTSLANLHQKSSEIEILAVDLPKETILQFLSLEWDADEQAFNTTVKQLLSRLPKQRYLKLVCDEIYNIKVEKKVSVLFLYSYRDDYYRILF

[4] = molecular target: T2, Serine/threonine-protein kinase Nek9 (Homo sapiens) (UniProt Q8TD19); test: Inhibition of NEK9 Lys2 labeling site in human A-375 cells at 0.5 uM by KiNativ Profiling analysis relative to control; type: cell-based
T2 sequence (whole entry): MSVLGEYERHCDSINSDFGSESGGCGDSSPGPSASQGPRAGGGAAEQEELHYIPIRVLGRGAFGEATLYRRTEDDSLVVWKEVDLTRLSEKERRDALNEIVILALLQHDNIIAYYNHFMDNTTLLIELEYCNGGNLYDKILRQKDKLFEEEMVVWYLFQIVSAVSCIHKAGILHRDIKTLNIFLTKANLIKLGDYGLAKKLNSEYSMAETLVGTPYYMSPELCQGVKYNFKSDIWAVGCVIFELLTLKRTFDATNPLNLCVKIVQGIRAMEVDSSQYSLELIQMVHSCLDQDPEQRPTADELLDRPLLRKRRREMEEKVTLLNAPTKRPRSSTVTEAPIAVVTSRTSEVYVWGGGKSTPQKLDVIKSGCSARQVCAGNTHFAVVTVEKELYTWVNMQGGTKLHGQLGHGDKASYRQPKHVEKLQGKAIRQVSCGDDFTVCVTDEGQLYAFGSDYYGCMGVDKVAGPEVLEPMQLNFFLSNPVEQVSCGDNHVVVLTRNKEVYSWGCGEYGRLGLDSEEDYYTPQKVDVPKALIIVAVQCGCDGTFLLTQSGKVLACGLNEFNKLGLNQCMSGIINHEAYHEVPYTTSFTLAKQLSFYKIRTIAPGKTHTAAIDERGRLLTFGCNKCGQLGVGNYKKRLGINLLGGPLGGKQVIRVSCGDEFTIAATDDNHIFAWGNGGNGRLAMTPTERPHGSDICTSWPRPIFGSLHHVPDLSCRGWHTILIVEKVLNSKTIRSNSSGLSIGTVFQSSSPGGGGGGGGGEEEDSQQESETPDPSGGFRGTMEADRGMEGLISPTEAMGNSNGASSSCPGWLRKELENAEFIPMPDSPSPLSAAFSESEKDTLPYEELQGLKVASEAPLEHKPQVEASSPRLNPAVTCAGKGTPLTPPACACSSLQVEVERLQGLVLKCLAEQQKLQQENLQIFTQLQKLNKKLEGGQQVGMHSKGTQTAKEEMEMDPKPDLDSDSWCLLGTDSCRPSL

[5] = molecular target: T3, Serine/threonine-protein kinase Nek1 (Homo sapiens) (UniProt Q96PY6); test: Inhibition of NEK1 (unknown origin) at 1 uM by Ambit Kinomescan binding assay relative to control; values are per cent of control
T3 sequence (whole entry): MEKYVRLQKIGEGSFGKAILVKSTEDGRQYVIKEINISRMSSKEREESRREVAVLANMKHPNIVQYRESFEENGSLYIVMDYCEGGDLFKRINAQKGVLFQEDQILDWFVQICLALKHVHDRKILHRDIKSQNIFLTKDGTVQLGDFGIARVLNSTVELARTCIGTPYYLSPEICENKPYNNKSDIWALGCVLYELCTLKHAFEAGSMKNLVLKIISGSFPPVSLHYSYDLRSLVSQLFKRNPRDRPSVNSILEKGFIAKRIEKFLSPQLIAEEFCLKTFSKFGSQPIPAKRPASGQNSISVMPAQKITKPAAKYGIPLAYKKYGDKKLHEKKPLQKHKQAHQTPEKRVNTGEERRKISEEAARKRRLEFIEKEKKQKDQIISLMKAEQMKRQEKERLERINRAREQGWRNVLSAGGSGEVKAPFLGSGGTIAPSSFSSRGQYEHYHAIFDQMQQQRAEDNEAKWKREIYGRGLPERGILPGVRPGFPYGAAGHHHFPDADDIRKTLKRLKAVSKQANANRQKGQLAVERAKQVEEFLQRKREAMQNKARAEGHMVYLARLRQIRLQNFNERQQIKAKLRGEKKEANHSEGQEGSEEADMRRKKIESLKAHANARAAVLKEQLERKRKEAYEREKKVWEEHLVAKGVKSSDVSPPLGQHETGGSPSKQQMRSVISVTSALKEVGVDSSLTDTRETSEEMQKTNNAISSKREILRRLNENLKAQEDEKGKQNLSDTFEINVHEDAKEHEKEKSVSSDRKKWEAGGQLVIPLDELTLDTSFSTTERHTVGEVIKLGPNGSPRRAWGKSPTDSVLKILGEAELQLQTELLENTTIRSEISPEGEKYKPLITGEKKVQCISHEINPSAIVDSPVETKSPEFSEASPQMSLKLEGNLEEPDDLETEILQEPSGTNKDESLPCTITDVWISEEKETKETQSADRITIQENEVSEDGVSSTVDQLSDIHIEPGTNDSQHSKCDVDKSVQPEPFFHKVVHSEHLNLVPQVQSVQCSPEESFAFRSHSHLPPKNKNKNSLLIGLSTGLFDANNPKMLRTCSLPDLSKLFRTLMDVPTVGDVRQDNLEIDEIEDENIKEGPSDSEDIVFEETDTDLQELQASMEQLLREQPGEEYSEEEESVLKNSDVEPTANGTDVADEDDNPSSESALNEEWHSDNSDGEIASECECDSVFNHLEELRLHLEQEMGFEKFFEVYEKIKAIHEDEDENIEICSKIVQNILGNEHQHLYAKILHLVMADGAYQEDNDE

SMILES	inhibition [1]	inhibition [2]	inhibition [3]	inhibition [4]	residual activity [5]
CCN1CCN(Cc2ccc(NC(=O)c3ccc(C)c(Oc4ccnc5[nH]ccc45)c3)cc2C(F)(F)F)CC1	8.8%	83.3%	–	–	–
CCN1CCN(Cc2ccc(NC(=O)c3ccc(C)c(/C=C/c4cnc5[nH]ccc5c4OC)c3)cc2C(F)(F)F)CC1	–	–	11%	10.4%	83%
